Results published in ChEMBL document CHEMBL3407416, “Discovery of (R)-8-(1-(3,5-difluorophenylamino)ethyl)-N,N-dimethyl-2-morpholino-4-oxo-4H-chromene-6-carboxamide (AZD8186): a potent and selective inhibitor of PI3Kβ and PI3Kδ for the treatment of PTEN-deficient cancers” (J Med Chem, 2015).

How the values were obtained:
[1] = target: T1, Phosphatidylinositol 4,5-bisphosphate 3-kinase catalytic subunit alpha isoform (Homo sapiens, UniProt P42336); assay: Inhibition of human recombinant PI3Kalpha using PIP2 by Kinase-Glo Plus assay
Target sequence in this assay (P42336 whole entry, canonical isoform): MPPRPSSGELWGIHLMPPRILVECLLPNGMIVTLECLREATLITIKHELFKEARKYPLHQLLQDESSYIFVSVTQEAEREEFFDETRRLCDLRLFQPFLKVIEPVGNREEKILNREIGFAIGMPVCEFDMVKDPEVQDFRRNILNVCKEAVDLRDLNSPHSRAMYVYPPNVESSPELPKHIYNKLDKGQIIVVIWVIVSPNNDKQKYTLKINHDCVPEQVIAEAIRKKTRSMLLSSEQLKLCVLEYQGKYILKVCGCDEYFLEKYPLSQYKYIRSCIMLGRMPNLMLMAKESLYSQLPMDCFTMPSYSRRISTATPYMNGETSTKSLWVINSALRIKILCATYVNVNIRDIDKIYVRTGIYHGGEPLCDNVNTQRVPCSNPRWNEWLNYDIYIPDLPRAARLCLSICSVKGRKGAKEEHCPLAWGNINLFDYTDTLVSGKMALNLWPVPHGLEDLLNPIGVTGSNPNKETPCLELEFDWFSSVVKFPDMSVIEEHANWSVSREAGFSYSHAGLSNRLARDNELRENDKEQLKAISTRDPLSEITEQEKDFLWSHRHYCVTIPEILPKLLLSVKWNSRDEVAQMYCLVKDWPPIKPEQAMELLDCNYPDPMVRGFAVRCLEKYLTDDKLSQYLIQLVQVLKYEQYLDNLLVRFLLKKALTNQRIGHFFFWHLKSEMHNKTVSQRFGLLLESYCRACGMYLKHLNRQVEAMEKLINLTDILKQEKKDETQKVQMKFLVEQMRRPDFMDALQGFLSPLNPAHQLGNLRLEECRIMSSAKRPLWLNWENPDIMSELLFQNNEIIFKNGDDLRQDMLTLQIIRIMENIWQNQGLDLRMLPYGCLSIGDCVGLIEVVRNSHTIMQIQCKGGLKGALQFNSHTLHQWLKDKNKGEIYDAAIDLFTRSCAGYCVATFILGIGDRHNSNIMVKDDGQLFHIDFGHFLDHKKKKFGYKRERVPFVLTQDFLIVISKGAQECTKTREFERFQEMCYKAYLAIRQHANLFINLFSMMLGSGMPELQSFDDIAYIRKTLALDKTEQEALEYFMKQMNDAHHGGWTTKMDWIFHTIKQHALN

[2] = target: T2, Phosphatidylinositol 4,5-bisphosphate 3-kinase catalytic subunit beta isoform (Homo sapiens, UniProt P42338); assay: Inhibition of human recombinant PI3Kbeta using PIP2 by Kinase-Glo Plus assay
T2 sequence (P42338 whole entry, canonical isoform): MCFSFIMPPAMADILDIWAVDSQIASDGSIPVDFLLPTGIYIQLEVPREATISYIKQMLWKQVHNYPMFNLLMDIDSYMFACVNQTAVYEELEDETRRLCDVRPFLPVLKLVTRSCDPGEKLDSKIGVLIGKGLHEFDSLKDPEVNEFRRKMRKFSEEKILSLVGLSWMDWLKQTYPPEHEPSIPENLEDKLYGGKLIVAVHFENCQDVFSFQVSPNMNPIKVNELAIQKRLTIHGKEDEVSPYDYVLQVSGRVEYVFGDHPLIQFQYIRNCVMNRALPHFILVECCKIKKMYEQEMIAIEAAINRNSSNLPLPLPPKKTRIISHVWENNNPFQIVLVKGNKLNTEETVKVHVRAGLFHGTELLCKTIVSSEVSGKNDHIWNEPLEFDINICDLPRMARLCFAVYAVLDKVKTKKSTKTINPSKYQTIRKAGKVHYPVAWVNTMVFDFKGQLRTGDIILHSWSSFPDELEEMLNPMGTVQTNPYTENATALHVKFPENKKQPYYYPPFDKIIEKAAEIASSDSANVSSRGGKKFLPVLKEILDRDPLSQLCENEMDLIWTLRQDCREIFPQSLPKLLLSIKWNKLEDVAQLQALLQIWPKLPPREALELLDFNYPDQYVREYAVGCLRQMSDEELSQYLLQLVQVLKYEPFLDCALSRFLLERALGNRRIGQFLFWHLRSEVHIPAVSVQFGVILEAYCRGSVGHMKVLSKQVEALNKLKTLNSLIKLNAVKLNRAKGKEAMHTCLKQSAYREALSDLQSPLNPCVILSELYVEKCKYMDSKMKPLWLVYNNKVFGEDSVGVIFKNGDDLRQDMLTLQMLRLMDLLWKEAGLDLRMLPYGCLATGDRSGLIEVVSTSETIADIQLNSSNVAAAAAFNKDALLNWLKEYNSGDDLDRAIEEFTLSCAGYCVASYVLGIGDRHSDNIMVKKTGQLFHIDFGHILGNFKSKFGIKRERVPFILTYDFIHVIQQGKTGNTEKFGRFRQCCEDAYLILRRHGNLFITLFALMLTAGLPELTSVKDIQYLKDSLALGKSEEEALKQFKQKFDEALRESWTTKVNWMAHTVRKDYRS

[3] = target: Phosphatidylinositol 4,5-bisphosphate 3-kinase catalytic subunit gamma isoform (Homo sapiens, UniProt P48736); assay: Inhibition of human recombinant PI3Kgamma using PIP2 by Kinase-Glo Plus assay
Sequence of Phosphatidylinositol 4,5-bisphosphate 3-kinase catalytic subunit gamma isoform (P48736 whole entry, canonical isoform): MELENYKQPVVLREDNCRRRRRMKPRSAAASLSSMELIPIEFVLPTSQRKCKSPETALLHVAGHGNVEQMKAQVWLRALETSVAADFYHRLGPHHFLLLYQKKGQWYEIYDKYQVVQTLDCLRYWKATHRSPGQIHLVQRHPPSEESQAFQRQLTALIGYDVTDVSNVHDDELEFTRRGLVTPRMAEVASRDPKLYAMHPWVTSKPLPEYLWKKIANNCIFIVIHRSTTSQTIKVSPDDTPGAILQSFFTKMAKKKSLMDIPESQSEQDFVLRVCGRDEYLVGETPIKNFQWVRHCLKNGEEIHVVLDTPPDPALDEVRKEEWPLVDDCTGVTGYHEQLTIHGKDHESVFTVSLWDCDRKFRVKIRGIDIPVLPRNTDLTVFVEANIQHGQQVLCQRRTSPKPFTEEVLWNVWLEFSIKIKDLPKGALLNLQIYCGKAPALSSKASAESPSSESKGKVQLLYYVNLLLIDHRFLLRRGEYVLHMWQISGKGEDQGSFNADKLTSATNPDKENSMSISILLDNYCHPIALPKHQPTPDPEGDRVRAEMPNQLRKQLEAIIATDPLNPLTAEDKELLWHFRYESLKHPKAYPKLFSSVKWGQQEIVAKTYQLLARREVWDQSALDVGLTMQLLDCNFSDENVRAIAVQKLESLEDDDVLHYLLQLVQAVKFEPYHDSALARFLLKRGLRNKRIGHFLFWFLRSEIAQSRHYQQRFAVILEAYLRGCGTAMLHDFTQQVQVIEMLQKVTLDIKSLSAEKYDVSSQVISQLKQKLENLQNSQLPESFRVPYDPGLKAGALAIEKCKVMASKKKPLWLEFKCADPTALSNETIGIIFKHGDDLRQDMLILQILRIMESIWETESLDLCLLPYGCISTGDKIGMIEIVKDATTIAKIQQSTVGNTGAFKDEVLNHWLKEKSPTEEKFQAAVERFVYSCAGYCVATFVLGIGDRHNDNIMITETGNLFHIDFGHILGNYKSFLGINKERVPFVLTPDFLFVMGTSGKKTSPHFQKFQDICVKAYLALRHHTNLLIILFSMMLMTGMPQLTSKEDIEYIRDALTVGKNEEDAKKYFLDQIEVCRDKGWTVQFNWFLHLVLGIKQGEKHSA

[4] = target: T3, Phosphatidylinositol 4,5-bisphosphate 3-kinase catalytic subunit delta isoform (Homo sapiens, UniProt O00329); assay: Inhibition of human recombinant PI3Kdelta using PIP2 by Kinase-Glo Plus assay
T3 sequence (O00329 whole entry): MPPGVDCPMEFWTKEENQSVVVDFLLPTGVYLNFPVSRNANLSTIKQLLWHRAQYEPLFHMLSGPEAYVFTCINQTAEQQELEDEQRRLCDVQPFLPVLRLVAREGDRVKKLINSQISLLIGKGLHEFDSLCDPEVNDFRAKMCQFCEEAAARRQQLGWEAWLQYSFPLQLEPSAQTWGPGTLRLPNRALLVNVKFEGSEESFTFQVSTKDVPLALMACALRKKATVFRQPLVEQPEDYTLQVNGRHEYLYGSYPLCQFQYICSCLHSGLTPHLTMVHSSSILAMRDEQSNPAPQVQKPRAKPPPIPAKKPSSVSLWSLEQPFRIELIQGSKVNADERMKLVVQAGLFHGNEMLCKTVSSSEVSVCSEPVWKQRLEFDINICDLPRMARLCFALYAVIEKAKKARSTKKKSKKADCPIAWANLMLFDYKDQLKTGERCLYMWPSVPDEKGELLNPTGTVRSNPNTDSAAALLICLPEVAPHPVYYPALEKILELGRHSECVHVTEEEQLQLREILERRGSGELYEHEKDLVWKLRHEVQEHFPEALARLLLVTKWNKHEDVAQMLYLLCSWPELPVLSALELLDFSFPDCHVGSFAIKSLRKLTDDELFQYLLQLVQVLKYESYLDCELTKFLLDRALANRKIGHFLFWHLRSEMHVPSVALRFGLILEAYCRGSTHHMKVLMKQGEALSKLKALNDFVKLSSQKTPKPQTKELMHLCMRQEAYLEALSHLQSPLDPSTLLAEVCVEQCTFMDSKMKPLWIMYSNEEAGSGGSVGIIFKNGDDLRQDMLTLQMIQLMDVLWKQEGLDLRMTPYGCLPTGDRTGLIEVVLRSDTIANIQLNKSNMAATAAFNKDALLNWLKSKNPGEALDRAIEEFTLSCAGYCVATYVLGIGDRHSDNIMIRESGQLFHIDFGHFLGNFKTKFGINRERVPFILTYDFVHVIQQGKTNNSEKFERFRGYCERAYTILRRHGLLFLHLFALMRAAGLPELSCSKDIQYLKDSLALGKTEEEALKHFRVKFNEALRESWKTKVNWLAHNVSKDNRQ

[5] = target: T1, Phosphatidylinositol 4,5-bisphosphate 3-kinase catalytic subunit alpha isoform; assay: Inhibition of PI3Kalpha mutant human BT474 cells assessed as inhibition of Akt phosphorylation at […] after 2 hrs; assay type: cell-based; settings: bt-474
Target sequence in this assay (P42336 whole entry, looked up, canonical isoform): as the sequence (P42336 whole entry, canonical isoform) above

[6] = target: T2, Phosphatidylinositol 4,5-bisphosphate 3-kinase catalytic subunit beta isoform; assay: Inhibition of PI3Kbeta in PTEN-null human MDA-MB-468 cells assessed as inhibition of Akt phosphorylation after 2 hrs; assay type: cell-based
[7] = Lipophilicity, log D of the compound at pH 7.4 by shake-flask method; assay type: physicochemical; settings: buffer
[8] = Intrinsic clearance in cryopreserved human hepatocytes measured per 10^6 cells; assay type: ADME, cell-based, Hepatocyte; settings: read-out: CLH
[9] = Apparent permeability from apical to basolateral side of human Caco2 cells; assay type: ADME, cell-based; settings: Caco-2, read-out: permeability

Row | SMILES | IC50 [1] | IC50 [2] | IC50 [3] | IC50 [4] | IC50 [5] | IC50 [6] | logD [7] | hepatocyte CLint [8] | Papp A→B [9]
1 | COc1cc(F)cc(NC(C)c2cc(C(=O)N(C)C)cc3c(=O)cc(N4CCOCC4)oc23)c1 (racemic) | 160 nM | 10 nM | 1600 nM | 61 nM | 1700 nM | 15 nM | 1.9 | < 3 µL/min/1e6 cells | –
2 | CCN(C)C(=O)c1cc(C(C)Nc2cc(F)cc(F)c2)c2oc(N3CCOCC3)cc(=O)c2c1 (racemic) | 110 nM | 8 nM | 930 nM | 59 nM | 2100 nM | 7 nM | 2.5 | 5 µL/min/1e6 cells | –
3 | C[C@@H](Nc1cc(F)c(F)c(F)c1)c1cc(C(=O)N(C)C)cc2c(=O)cc(N3CCOCC3)oc12 | 110 nM | – | 1400 nM | 23 nM | 1500 nM | – | – | < 4 µL/min/1e6 cells | –
4 | C[C@H](Nc1cc(F)cc(F)c1)c1cc(C(=O)N(C)C)cc2c(=O)cc(N3CCO[C@@H](C)C3)oc12 | 130 nM | 9 nM | 2900 nM | 79 nM | 2600 nM | 12 nM | 2.6 | < 3 µL/min/1e6 cells | –
5 | CNC(=O)c1cc([C@@H](C)Nc2cc(F)cc(F)c2)c2oc(N3CCOCC3)cc(=O)c2c1 | 18 nM | 6 nM | 250 nM | 14 nM | 960 nM | 3 nM | 2.8 | < 3 µL/min/1e6 cells | 3.5 ×10⁻⁶ cm/s
6 | CC(c1cc(C(=O)N2CCCC2)cc2c(=O)cc(N3CCOCC3)oc12)N(C)c1cc(F)cc(F)c1 (racemic) | 510 nM | 13 nM | 3500 nM | 120 nM | 5900 nM | 100 nM | 3.1 | 12 µL/min/1e6 cells | –
7 | CC(Nc1ccc(F)c(Cl)c1)c1cc(C(=O)N(C)C)cc2c(=O)cc(N3CCOCC3)oc12 (racemic) | 170 nM | 12 nM | 1800 nM | 64 nM | 5500 nM | 16 nM | 2.4 | 8 µL/min/1e6 cells | –
8 | CC(Nc1ccc(F)cc1)c1cc(C(=O)N(C)C)cc2c(=O)cc(N3CCOCC3)oc12 (racemic) | 810 nM | 18 nM | 13000 nM | 110 nM | 12400 nM | 128 nM | 1.5 | < 3 µL/min/1e6 cells | –
9 | CC(Nc1cccc(Cl)c1)c1cc(C(=O)N(C)C)cc2c(=O)cc(N3CCOCC3)oc12 (racemic) | 85 nM | 10 nM | 700 nM | 73 nM | 790 nM | 9 nM | 2.5 | < 4 µL/min/1e6 cells | –
10 | CN(C)C(=O)c1cc(CN(C)c2cc(F)cc(F)c2)c2oc(N3CCOCC3)cc(=O)c2c1 | – | – | – | – | – | – | 2.6 | < 5 µL/min/1e6 cells | 36 ×10⁻⁶ cm/s
11 | CC(Nc1cc(F)cc(F)c1)c1cc(C(=O)N2CCCCC2)cc2c(=O)cc(N3CCOCC3)oc12 (racemic) | 200 nM | 12 nM | 1000 nM | 59 nM | 3100 nM | 14 nM | 3.1 | 21 µL/min/1e6 cells | –
12 | CC(Nc1cccc(F)c1F)c1cc(C(=O)N(C)C)cc2c(=O)cc(N3CCOCC3)oc12 (racemic) | 370 nM | 13 nM | 4200 nM | 76 nM | 2200 nM | 24 nM | 1.9 | < 3 µL/min/1e6 cells | 13 ×10⁻⁶ cm/s
13 | CC(Nc1cc(F)ccc1F)c1cc(C(=O)N(C)C)cc2c(=O)cc(N3CCOCC3)oc12 (racemic) | 450 nM | 19 nM | 6000 nM | 150 nM | 7000 nM | 60 nM | 1.8 | 6 µL/min/1e6 cells | 12 ×10⁻⁶ cm/s
14 | C[C@@H](Nc1cc(F)cc(F)c1)c1cc(C(=O)N2CCC2)cc2c(=O)cc(N3CCOCC3)oc12 | 29 nM | – | 350 nM | 20 nM | 280 nM | – | 2.6 | < 3 µL/min/1e6 cells | 9.2 ×10⁻⁶ cm/s
15 | CCNC(=O)c1cc(C(C)Nc2cc(F)cc(F)c2)c2oc(N3CCOCC3)cc(=O)c2c1 (racemic) | 59 nM | 9 nM | 710 nM | 44 nM | 2900 nM | 14 nM | 3.1 | < 4 µL/min/1e6 cells | –
16 | CC(Nc1cccc(F)c1)c1cc(C(=O)N(C)C)cc2c(=O)cc(N3CCOCC3)oc12 (racemic) | 220 nM | 12 nM | 2600 nM | 73 nM | 2400 nM | 32 nM | 1.9 | < 3 µL/min/1e6 cells | –
17 | CCN(CC)C(=O)c1cc(C(C)Nc2cc(F)cc(F)c2)c2oc(N3CCOCC3)cc(=O)c2c1 (racemic) | 150 nM | 10 nM | 1200 nM | 71 nM | 3200 nM | 16 nM | 3.2 | 17 µL/min/1e6 cells | –
18 | CC(Nc1cc(Cl)cc(Cl)c1)c1cc(C(=O)N(C)C)cc2c(=O)cc(N3CCOCC3)oc12 (racemic) | 110 nM | 10 nM | 630 nM | 52 nM | 1900 nM | 17 nM | 3.2 | 18 µL/min/1e6 cells | –
19 | Cc1cc(F)cc(NC(C)c2cc(C(=O)N(C)C)cc3c(=O)cc(N4CCOCC4)oc23)c1 (racemic) | 130 nM | 15 nM | 2200 nM | 110 nM | 2900 nM | 49 nM | 2.2 | 6 µL/min/1e6 cells | –
20 | COCCN(C)C(=O)c1cc(C(C)Nc2cc(F)cc(F)c2)c2oc(N3CCOCC3)cc(=O)c2c1 (racemic) | 290 nM | 11 nM | 2600 nM | 160 nM | 2600 nM | – | 2.2 | 6 µL/min/1e6 cells | –
